Like-named read-outs stand apart in the source and are kept apart here.
Columns and labels:
[1] = target: T1, EGFR wild type (Homo sapiens, UniProt P00533); assay: Inhibition of EGFR wild type biochemical enzymatic activity (HTRF); settings: 1 mM ATP
T1 construct: purchased Carna Bio
In short: (§1)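 Kinase activity is measured by HTRF detection of biotinylated TK substrate (1 μM) phosphorylation at 1 mM ATP. Incubation lasts 1 h at room temperature before an EDTA stop, and IC50 is fitted with a four-parameter logistic model.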

[2] = target: T2, EGFR L858R (Homo sapiens, UniProt P00533, L858R); assay: Inhibition of EGFR L858R biochemical enzymatic activity (HTRF); settings: 1 mM ATP
T2 construct: purchased Carna Bio
In short: as §1

[3] = target: T3, EGFR L858R/T790M (Homo sapiens, UniProt P00533, L858R/T790M); assay: Inhibition of EGFR L858R/T790M biochemical enzymatic activity (HTRF); settings: 1 mM ATP
T3 construct: purchased Carna Bio
In short: as §1

[4] = target: T4, EGFR Exon19Del (Homo sapiens, UniProt P00533, DEL746-750); assay: Inhibition of EGFR Exon19Del biochemical enzymatic activity (HTRF); settings: EGFR Exon19Del, 1 mM ATP, 1 h at room temperature, read-out: IC50 @Del19
T4 construct: purchased Carna Bio
In short: as §1

[5] = target: T5, EGFR Exon19Del/T790M (Homo sapiens, UniProt P00533, DEL746-750/T790M); assay: Inhibition of EGFR Exon19Del/T790M biochemical enzymatic activity (HTRF); settings: 1 mM ATP
T5 construct: purchased Carna Bio
In short: as §1

[6] = target: T6, EGFR[T790M/C797S/L858R] (Homo sapiens, UniProt P00533, C797S/L858R/T790M); assay: Inhibition of EGFR[T790M/C797S/L858R] biochemical enzymatic activity (HTRF); settings: 1 mM ATP
T6 construct: purchased Carna Bio
In short: as §1

[7] = target: T7, EGFR[T790M/C797S/d746-750] (Homo sapiens, UniProt P00533, C797S/DEL746-750/T790M); assay: Inhibition of EGFR[T790M/C797S/d746-750] biochemical enzymatic activity (HTRF)
T7 construct: purchased Carna Bio
In short: as §1

[8] = target: T8, EGFR (d746-750 C797S) (Homo sapiens, UniProt P00533, C797S/DEL746-750); assay: Inhibition of EGFR (d746-750 C797S) biochemical enzymatic activity (HTRF); settings: 1 mM ATP
T8 construct: purchased signalchem
In short: as §1

[9] = target: T9, EGFR (C797S L858R) (Homo sapiens, UniProt P00533, C797S/L858R); assay: Inhibition of EGFR (C797S L858R) biochemical enzymatic activity (HTRF); settings: 1 mM ATP
T9 construct: purchased signalchem
In short: as §1

[10] = system: Ba/F3 cells expressing EGFR mutations; assay: Cell proliferation assay, Ba/F3 cells expressing EGFR mutations (CellTiter-Glo, 72 hours); format: cell-based
In short: (§2)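 GI50 is the concentration giving 50% proliferation inhibition. Growth for this was normalised to a baseline viability reading taken when compound was added, and to DMSO wells. PC-9 (500 cells/well) and mutant-EGFR Ba/F3 (5000 cells/well) are treated after overnight seeding in RPMI1640-based medium.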

[11] = system: PC-9; assay: Cell proliferation assay, PC-9 cells (CellTiter-Glo, 72 hours); format: cell-based; settings: PC9 cells, read-out: GI50 PC9
In short: as §2

[12] = system: A-431; assay: Cell proliferation assay, A-431 cells (GI50, Table 6); format: cell-based
Procedure: [Worded in the source for another cell line; this cell line is reported under the same test.] Ba/F3 cells expressing EGFR mutations were seeded in 384-well plates at 5000 cells/well in RPMI1640 medium containing […]. PC-9 at 500 cells/well was seeded into 384-well plates in RPMI1640 medium with 10% FBS. After overnight incubation, the assay plates were dosed with compounds at a series of concentrations. Alongside dosing the assay plates, the day 0 plate was processed using CellTiter-Glo® Luminescent Cell Viability Assay (Promega) to measure the number of viable cells (G0). The assay plates were further incubated for 72 hours and the number of viable cells (G3) was measured. The percentage of proliferation was calculated as: […]=100×(G3 value of sample well−G0 value)/(G3 value of DMSO control−G0 value). The concentration of compound producing 50% proliferation inhibition (GI50) was further calculated in best-fit curves using XLFit software. N/A=not available.

[13] = 1 h at room temperature, read-out: IC50 @L858R
[14] = EGFR L858R/T790M, 1 h at room temperature, read-out: IC50 @L858R-T790M
[15] = EGFR Exon19Del/T790M, 1 h at room temperature, read-out: IC50 @Del19-T790M
[16] = EGFR[T790M/C797S/L858R], 1 h at room temperature, read-out: IC50 @T790M- C797S - L858R
[17] = EGFR[T790M/C797S/d746-750], 1 mM ATP, 1 h at room temperature, read-out: IC50 @T790M - C797S - Del19
[18] = EGFR (d746-750 C797S), 1 h at room temperature, read-out: IC50 @Del19-C797S
[19] = EGFR (C797S L858R), 1 h at room temperature, read-out: IC50 @L858-C797S
[20] = Mus musculus, BaF3, 72 h, BaF3 cells, EGFR DEL19 - C797S, read-out: GI50 DEL19 - C797S/BaF3
[21] = Mus musculus, BaF3, 72 h, BaF3 cells, EGFR DEL19 - T790-C797S, read-out: GI50 DEL19 - T790-C797S/BaF3
[22] = Mus musculus, BaF3, 72 h, BaF3 cells, EGFR L858R - C797S, read-out: GI50 L858R - C797S/BaF3
[23] = Mus musculus, BaF3, 72 h, BaF3 cells, EGFR L858R - T790-C797S, read-out: GI50 L858R - T790-C797S/BaF3
[24] = Mus musculus, BaF3, 72 h, BaF3 cells, EGFR L858R - T790M, read-out: GI50 L858R - T790M/BaF3
[25] = Mus musculus, BaF3, 72 h, BaF3 cells, EGFR L858R, read-out: GI50 L858R/BaF3
[26] = Mus musculus, BaF3, 72 h, EGFR DEL19 - T790M, read-out: GI50 DEL19 - T790M
[27] = Homo sapiens, A-431, A-431 cells

T7 sequence (P00533 with tags, fused parts or gaps DEL746-750/T790M/C797S limits assumed): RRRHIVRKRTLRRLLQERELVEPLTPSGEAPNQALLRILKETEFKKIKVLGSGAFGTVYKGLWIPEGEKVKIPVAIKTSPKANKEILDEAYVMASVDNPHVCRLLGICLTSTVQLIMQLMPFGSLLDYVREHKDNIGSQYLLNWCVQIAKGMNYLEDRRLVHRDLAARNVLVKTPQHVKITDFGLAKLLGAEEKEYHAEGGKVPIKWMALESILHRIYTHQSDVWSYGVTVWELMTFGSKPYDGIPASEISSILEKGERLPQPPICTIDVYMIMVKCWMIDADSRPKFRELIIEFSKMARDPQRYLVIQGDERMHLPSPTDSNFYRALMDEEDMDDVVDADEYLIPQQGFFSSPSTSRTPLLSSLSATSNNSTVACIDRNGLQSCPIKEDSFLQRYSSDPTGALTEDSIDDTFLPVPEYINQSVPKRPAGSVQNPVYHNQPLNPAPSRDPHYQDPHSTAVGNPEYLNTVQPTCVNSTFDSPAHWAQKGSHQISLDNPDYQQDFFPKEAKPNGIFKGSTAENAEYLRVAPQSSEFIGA
T5 sequence (P00533 with tags, fused parts or gaps DEL746-750/T790M limits assumed): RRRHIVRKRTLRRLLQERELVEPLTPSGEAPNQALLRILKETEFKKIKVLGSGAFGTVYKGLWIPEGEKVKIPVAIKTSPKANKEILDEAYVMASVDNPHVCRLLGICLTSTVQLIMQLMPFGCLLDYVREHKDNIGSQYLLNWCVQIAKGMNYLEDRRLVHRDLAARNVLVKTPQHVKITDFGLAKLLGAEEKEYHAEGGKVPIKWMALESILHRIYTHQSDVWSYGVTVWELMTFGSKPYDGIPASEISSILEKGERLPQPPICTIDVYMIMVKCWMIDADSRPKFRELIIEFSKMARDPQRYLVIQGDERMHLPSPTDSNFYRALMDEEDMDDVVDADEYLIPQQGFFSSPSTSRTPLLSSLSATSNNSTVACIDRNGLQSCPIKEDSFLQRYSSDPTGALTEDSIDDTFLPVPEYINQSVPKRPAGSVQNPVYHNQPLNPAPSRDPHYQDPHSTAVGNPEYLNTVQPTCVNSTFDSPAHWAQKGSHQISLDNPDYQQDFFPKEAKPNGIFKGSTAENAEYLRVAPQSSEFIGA
T6 sequence (P00533 25-1210 T790M/C797S/L858R): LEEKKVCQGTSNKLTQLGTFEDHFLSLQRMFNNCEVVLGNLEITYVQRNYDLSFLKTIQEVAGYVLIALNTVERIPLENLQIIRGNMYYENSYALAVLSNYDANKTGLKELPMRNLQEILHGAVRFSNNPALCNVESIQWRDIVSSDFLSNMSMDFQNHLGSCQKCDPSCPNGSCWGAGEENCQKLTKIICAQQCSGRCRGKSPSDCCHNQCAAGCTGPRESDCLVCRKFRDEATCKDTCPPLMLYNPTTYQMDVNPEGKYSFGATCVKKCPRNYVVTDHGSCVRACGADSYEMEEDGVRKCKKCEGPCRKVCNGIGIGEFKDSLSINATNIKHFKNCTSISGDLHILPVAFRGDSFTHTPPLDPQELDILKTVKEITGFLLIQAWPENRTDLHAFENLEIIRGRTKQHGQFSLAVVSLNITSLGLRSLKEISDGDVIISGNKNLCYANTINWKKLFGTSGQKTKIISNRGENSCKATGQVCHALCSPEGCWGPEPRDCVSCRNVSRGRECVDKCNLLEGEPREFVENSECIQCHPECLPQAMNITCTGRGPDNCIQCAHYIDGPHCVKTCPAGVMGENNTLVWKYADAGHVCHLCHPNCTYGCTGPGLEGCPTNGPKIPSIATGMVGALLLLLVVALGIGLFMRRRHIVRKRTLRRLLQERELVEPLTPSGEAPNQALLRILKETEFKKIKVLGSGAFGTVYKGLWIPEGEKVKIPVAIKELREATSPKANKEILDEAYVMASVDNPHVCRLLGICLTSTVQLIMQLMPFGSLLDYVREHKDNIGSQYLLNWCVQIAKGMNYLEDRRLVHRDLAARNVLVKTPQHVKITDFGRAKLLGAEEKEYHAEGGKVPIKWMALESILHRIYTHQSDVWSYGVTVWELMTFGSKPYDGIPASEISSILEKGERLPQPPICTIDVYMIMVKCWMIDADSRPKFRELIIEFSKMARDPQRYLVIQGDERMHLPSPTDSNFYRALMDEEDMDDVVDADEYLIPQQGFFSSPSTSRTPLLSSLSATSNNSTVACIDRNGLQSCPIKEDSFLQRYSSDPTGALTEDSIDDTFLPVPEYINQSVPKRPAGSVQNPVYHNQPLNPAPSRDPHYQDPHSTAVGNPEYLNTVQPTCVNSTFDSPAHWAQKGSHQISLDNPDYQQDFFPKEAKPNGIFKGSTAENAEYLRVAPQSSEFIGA
T9 sequence (P00533 25-1210 C797S/L858R): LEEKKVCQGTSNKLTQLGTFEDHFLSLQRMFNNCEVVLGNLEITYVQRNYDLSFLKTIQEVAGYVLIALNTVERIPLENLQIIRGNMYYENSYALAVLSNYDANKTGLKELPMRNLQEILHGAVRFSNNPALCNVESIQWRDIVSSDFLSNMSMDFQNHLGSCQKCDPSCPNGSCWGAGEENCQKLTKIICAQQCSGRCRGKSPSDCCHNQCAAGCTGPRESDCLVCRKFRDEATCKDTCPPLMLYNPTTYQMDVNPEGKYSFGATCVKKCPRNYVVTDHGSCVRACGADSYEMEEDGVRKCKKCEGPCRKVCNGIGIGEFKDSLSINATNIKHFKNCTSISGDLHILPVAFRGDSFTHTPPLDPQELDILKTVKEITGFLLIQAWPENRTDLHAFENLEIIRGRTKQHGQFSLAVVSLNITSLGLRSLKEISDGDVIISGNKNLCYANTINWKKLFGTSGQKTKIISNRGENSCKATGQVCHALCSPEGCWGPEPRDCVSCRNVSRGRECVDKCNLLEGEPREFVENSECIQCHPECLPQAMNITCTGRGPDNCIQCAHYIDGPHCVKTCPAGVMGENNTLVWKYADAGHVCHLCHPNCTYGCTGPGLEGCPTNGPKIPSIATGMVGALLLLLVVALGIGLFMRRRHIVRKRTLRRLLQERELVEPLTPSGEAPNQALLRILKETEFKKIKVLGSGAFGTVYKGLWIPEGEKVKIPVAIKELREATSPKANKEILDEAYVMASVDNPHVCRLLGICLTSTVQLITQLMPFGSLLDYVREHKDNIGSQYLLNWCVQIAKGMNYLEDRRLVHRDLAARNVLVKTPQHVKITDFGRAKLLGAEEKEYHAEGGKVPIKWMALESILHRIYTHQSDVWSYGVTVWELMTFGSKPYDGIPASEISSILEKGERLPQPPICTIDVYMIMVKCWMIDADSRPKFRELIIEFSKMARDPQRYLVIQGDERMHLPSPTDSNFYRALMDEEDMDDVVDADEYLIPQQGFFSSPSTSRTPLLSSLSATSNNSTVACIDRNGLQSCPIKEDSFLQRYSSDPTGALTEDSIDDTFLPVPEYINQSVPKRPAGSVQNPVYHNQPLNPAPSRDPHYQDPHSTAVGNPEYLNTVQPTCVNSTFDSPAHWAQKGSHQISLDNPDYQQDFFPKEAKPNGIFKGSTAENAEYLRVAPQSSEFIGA
T8 sequence (P00533 with tags, fused parts or gaps DEL746-750/C797S limits assumed): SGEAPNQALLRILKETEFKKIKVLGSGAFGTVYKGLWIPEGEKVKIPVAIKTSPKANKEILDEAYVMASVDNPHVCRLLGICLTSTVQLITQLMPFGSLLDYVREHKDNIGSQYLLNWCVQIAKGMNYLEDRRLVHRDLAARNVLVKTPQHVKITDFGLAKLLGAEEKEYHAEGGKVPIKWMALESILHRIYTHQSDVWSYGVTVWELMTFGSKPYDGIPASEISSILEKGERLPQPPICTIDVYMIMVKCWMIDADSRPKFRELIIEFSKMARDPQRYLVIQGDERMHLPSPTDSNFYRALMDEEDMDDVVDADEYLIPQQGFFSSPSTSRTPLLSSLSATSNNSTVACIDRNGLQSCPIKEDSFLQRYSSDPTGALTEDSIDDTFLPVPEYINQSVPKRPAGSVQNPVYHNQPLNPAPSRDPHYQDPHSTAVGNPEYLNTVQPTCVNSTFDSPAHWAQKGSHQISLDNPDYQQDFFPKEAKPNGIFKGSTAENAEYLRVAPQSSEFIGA
T4 sequence (P00533 with tags, fused parts or gaps DEL746-750 limits assumed): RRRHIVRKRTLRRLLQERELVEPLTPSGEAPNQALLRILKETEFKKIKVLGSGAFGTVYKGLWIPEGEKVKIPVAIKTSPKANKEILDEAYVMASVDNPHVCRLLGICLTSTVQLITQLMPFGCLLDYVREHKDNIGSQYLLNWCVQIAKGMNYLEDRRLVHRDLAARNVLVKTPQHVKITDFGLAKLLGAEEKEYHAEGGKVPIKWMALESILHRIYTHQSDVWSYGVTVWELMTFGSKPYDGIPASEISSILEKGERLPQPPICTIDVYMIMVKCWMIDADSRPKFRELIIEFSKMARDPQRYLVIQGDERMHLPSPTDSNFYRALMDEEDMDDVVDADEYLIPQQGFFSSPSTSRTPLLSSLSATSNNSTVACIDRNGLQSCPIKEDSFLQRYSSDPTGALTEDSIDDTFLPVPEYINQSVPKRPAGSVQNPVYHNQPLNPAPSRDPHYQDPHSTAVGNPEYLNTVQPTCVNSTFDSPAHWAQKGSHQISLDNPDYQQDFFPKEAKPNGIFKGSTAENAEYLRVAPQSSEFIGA

`Cc1cc2cc(n1)-c1cnn(C)c1OCCN1CC3CCC(C3)(C1)n1c(nc3ccc(N4CCOCC4)cc31)NC2=O` (single isomer, unassigned) [Example B10B, 15,21-Dimethyl-5-(morpholin-4-yl)-23-oxa-2,9,11,16,20,21,26-heptaazaheptacyclo[24.4.1.1^{1,28}.1^{13,17}.0^{2,10}.0^{3,8}.0^{18,22}]tritriaconta-3,5,7,9,13,15,17(33),18(22),19-nonaen-12-one] gave an IC50 ([1]; EGFR wild type, 1 h at room temperature, read-out: IC50 @WT) greater than 5000 nM, an IC50 [2, 13] greater than 5000 nM and an IC50 [3, 14] greater than 5000 nM. It also gave an IC50 [4] of 1080 nM, an IC50 [5, 15] greater than 5000 nM and an IC50 [6, 16] greater than 5000 nM. It also gave an IC50 [7, 17] of 4040 nM, an IC50 [8, 18] of 1430 nM and an IC50 [9, 19] greater than 5000 nM. It also gave a GI50 ([10]; BaF3 cells, EGFR DEL19 - C797S, read-out: GI50 DEL19 - C797S/BaF3) of 403 nM, a GI50 ([10]; BaF3 cells, EGFR DEL19 - T790-C797S, read-out: GI50 DEL19 - T790-C797S/BaF3) of 516 nM and a GI50 ([10]; BaF3 cells, EGFR L858R - C797S, read-out: GI50 L858R - C797S/BaF3) of 1580 nM. For the same compound, the GI50 ([10]; BaF3 cells, EGFR L858R - T790-C797S, read-out: GI50 L858R - T790-C797S/BaF3) was 595 nM, the GI50 ([10]; BaF3 cells, EGFR L858R - T790M, read-out: GI50 L858R - T790M/BaF3) was 539 nM and the GI50 ([10]; BaF3 cells, EGFR L858R, read-out: GI50 L858R/BaF3) was 2910 nM. It also gave a GI50 ([10]; EGFR DEL19 - T790M, read-out: GI50 DEL19 - T790M) of 765 nM, a GI50 [11] of 2620 nM and a GI50 ([12]; A-431 cells) of 5520 nM.

With `CN1CCN(c2cc3c(cc2F)nc2n3C34CCC(CC3)CN(CCOc3c(cnn3C)-c3cc(cn(C)c3=O)C(=O)N2)C4)CC1` [Example A115, 6-fluoro-15,21-dimethyl-5-(4-methylpiperazin-1-yl)-23-oxa-2,9,11,15,20,21,26-heptaazaheptacyclo[26.2.2.1^{1,26}.1^{13,17}.0^{2,10}.0^{3,8}.0^{18,22}]tetratriaconta-3,5,7,9,13,17(34),18(22),19-octaene-12,16-dione] the IC50 ([1]; EGFR WT, 1 h, room temperature, read-out: IC50 (nM) @WT) was greater than 5000 nM, the IC50 ([2]; 1 h, room temperature, read-out: IC50 (nM) @L858R) was 233 nM and the IC50 ([3]; EGFR L858R-T790M, 1 h, room temperature, read-out: IC50 (nM) @L858R-T790M) was 325 nM. For the same compound, the IC50 ([5]; EGFR Del19-T790M, 1 h, room temperature, read-out: IC50 (nM) @Del19-T790M) was 12 nM, the IC50 ([6]; EGFR T790M-C797S-L858R, 1 h, room temperature, read-out: IC50 (nM) @T790M- C797S - L858R) was 50 nM and the IC50 ([7]; EGFR T790M-C797S-Del19, 1 mM ATP, 1 h, room temperature, read-out: IC50 (nM) @T790M - C797S - Del19) was 6.6 nM. The IC50 ([8]; EGFR Del19-C797S, 1 h, room temperature, read-out: IC50 (nM) @Del19-C797S) was 9.2 nM, the IC50 ([9]; EGFR L858-C797S, 1 h, room temperature, read-out: IC50 (nM) @L858-C797S) was 112 nM and the GI50 [10, 20] was 7.6 nM. For the same compound, the GI50 [10, 21] was 52 nM, the GI50 [10, 22] was 61 nM and the GI50 [10, 23] was 68 nM. For the same compound, the GI50 [10, 24] was 133 nM, the GI50 [10, 25] was 20 nM and the GI50 [10, 26] was 18 nM. The GI50 ([11]; Homo sapiens, PC-9, 72 h) was 94 nM and the GI50 [12, 27] was 3040 nM.

For `Cc1cc2cc(n1)-c1cnn(C)c1OCCN1CC3CCC(CC3)(C1)n1c(nc3ccc(N4CCC5(CCN(C)CC5)C4)cc31)NC2=O` [Example B31], the IC50 [2, 13] was 244 nM, the IC50 [3, 14] was 20 nM and the IC50 [4] was 19 nM. For the same compound, the IC50 [5, 15] was 11 nM, the IC50 [6, 16] was 8.2 nM and the IC50 [7, 17] was 7.3 nM. It also gave an IC50 [8, 18] of 15 nM, an IC50 [9, 19] of 113 nM and a GI50 [10, 20] of 24 nM. The GI50 [10, 21] was 10 nM, the GI50 [10, 22] was 127 nM and the GI50 [10, 23] was 19 nM. The GI50 [10, 24] was 38 nM, the GI50 [10, 25] was 81 nM and the GI50 [10, 26] was 10 nM. The GI50 ([11]; Homo sapiens, PC-9, 72 h) was 103 nM and the GI50 [12, 27] was 1680 nM.
